Tests used:
T5 exonuclease (T5E) [1] = biological target: T1, T5 exonuclease (T5E) (Escherichia phage T5, UniProt P06229); test: agarose gel, degradation of; format: biochemical; conditions: high nucleotide concentrations
T1 sequence (P06229 2-291): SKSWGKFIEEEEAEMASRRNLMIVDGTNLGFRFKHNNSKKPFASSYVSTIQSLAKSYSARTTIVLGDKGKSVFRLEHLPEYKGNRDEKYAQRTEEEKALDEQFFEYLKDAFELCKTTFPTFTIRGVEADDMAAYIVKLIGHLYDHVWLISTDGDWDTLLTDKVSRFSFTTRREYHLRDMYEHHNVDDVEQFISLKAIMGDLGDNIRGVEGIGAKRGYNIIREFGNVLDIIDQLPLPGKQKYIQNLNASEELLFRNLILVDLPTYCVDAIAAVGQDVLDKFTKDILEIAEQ

[2] = biological target: T2, E. coli DNA topoisomerase I (EcTopI) (Escherichia coli, UniProt P06612); test: agarose gel DNA relaxation assay; format: biochemical
T2 sequence (P06612 1-865): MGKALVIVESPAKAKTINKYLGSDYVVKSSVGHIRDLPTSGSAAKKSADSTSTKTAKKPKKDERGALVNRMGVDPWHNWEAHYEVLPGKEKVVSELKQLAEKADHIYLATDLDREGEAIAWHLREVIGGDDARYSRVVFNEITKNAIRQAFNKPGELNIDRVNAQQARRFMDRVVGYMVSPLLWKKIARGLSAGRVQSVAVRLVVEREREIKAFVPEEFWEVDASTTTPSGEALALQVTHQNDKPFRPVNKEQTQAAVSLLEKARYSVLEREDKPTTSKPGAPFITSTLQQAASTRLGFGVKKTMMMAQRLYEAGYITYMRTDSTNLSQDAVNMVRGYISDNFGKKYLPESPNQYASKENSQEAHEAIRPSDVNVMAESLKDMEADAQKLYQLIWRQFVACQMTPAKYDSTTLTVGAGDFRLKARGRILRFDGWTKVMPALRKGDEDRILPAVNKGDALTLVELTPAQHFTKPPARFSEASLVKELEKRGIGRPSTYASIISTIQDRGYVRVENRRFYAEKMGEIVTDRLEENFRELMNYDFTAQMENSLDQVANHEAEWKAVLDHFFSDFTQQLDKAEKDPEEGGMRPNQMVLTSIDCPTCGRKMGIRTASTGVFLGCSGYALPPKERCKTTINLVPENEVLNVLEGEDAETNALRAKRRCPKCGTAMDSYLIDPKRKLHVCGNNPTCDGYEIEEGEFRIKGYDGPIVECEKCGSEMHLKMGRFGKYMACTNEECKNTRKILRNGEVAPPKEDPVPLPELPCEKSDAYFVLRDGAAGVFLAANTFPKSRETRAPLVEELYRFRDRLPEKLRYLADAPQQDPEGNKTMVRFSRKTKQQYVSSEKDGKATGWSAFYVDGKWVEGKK

T5 exonuclease (T5E) [3] = biological target: T1, T5 exonuclease (T5E); test: flap endonuclease activity assay; format: biochemical
[4] = biological target: variola DNA topoisomerase I (vTopI) (Variola virus human/India/Ind3/1967, UniProt P32989)
Chain of variola DNA topoisomerase I (vTopI) (P32989 whole entry, looked up): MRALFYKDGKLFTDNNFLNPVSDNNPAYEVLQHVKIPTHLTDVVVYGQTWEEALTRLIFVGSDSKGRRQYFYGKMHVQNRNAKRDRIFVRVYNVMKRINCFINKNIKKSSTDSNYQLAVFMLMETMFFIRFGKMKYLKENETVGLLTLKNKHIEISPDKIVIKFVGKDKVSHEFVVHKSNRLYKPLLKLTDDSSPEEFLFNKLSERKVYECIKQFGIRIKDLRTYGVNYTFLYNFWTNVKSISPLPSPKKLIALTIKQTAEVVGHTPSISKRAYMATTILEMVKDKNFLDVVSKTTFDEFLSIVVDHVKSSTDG

SMILES	agarose gel, degradation of (-) sc pAB1 (T5 exonuclease (T5E) [1])	further results
Nc1ncnc2c1ncn2[C@@H]1O[C@H](COP(=O)(O)OP(=O)(O)OP(=O)(O)O)[C@@H](O)[C@H]1O [ATP]	high concentrations of ATP, GTP, CTP, and UTP inhibited the degradation of (−) sc pAB1	–
O=C1C=C(NCCc2cc(Br)c(O)c(Br)c2)C(=O)c2ncccc21 [NSC668394]	–	IC50 [2]: 8 ± 0.2 µM
Nc1nc2c(ncn2[C@@H]2O[C@H](COP(=O)(O)OP(=O)(O)OP(=O)(O)O)[C@@H](O)[C@H]2O)c(=O)[nH]1 [GTP]	high concentrations of ATP, GTP, CTP, and UTP inhibited the degradation of (−) sc pAB1	–
Cc1ccc(C(=O)Nc2ccc(S(=O)(=O)O)c3cc(S(=O)(=O)O)cc(S(=O)(=O)O)c23)cc1NC(=O)c1cccc(NC(=O)Nc2cccc(C(=O)Nc3cc(C(=O)Nc4ccc(S(=O)(=O)O)c5cc(S(=O)(=O)O)cc(S(=O)(=O)O)c45)ccc3C)c2)c1 [suramin]	–	IC50 (T5 exonuclease (T5E) [3]): 22.6 µM; T5 exonuclease-based fluorescence HTS at 20 μM [4]: The only positive hit is the polynegatively charged suramin (Figure S6b)
Nc1ccn([C@@H]2O[C@H](COP(=O)(O)OP(=O)(O)OP(=O)(O)O)[C@@H](O)[C@H]2O)c(=O)n1 [CTP]	high concentrations of ATP, GTP, CTP, and UTP inhibited the degradation of (−) sc pAB1	–
O=c1ccn([C@@H]2O[C@H](COP(=O)(O)OP(=O)(O)OP(=O)(O)O)[C@@H](O)[C@H]2O)c(=O)[nH]1 [UTP]	high concentrations of ATP, GTP, CTP, and UTP inhibited the degradation of (−) sc pAB1	–

Source: publication PMC8154156 (ACS Omega, 2021)
